Experimental data taken from PubChem BioAssay (NCI).
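96-well plates; 48 h exposure; 5 concentrations. Endpoints by linear interpolation between flanking doses. Not reached: highest tested concentration assigned. Here, GI50 denotes the concentration required for 50% inhibition of growth. TGI: concentration producing complete growth inhibition.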

Legend:
Experiment in all cases: growth of human tumour cells (NCI), 48 h
SR leukemia = test system: SR leukemia
HL-60(TB) leukemia = test system: HL-60(TB) leukemia
NCI-H226 lung = test system: NCI-H226 lung
SF-268 CNS = test system: SF-268 CNS
MALME-3M melanoma = test system: MALME-3M melanoma
NCI-H460 lung = test system: NCI-H460 lung
SW-620 colon = test system: SW-620 colon
A498 renal = test system: A498 renal
OVCAR-5 ovarian = test system: OVCAR-5 ovarian
NCI-H522 lung = test system: NCI-H522 lung
TK-10 renal = test system: TK-10 renal
MOLT-4 leukemia = test system: MOLT-4 leukemia
SF-539 CNS = test system: SF-539 CNS
K-562 leukemia = test system: K-562 leukemia
A549 NSCLC = test system: A549 NSCLC
HT29 colon = test system: HT29 colon
HOP-92 NSCLC = test system: HOP-92 NSCLC
SNB-75 CNS = test system: SNB-75 CNS
KM20L2 colon = test system: KM20L2 colon
SK-MEL-28 melanoma = test system: SK-MEL-28 melanoma
OVCAR-8 ovarian = test system: OVCAR-8 ovarian
HCC-2998 colon = test system: HCC-2998 colon
XF 498 CNS = test system: XF 498 CNS
SK-OV-3 ovarian = test system: SK-OV-3 ovarian
UACC-62 melanoma = test system: UACC-62 melanoma
HOP-62 NSCLC = test system: HOP-62 NSCLC
SK-MEL-2 melanoma = test system: SK-MEL-2 melanoma
M14 melanoma = test system: M14 melanoma
EKVX NSCLC = test system: EKVX NSCLC
UO-31 renal = test system: UO-31 renal
CAKI-1 renal = test system: CAKI-1 renal
786-0 renal = test system: 786-0 renal
SN12C renal = test system: SN12C renal
UACC-257 melanoma = test system: UACC-257 melanoma
IGROV1 ovarian = test system: IGROV1 ovarian
SNB-19 CNS = test system: SNB-19 CNS
COLO 205 colon = test system: COLO 205 colon
DLD-1 colon = test system: DLD-1 colon
HCT-116 colon = test system: HCT-116 colon
ACHN renal = test system: ACHN renal
SF-295 CNS = test system: SF-295 CNS
RPMI-8226 leukemia = test system: RPMI-8226 leukemia
HOP-18 NSCLC = test system: HOP-18 NSCLC
KM12 colon = test system: KM12 colon
NCI-H23 lung = test system: NCI-H23 lung
U251 CNS = test system: U251 CNS
DMS 273 small cell lung = test system: DMS 273 small cell lung
RXF 393 renal = test system: RXF 393 renal
SK-MEL-5 melanoma = test system: SK-MEL-5 melanoma
LXFL 529 NSCLC = test system: LXFL 529 NSCLC
OVCAR-4 ovarian = test system: OVCAR-4 ovarian
OVCAR-3 ovarian = test system: OVCAR-3 ovarian
M19-MEL melanoma = test system: M19-MEL melanoma
SNB-78 CNS = test system: SNB-78 CNS
CCRF-CEM leukemia = test system: CCRF-CEM leukemia
LOX IMVI melanoma = test system: LOX IMVI melanoma
HCT-15 colon = test system: HCT-15 colon
RXF-631 renal = test system: RXF-631 renal

Question: For `CC[C@@]1(O)C(=O)OCc2c1cc1n(c2=O)Cc2cc3c([N+](=O)[O-])c(OC)ccc3nc2-1`, which GI50 (SR leukemia) is on record?
Answer: < 10 nM

Question: And the GI50 (HL-60(TB) leukemia)?
Answer: 23.6 nM

Question: And the TGI (HL-60(TB) leukemia)?
Answer: 196 nM

Question: What about the GI50 (NCI-H226 lung) of the same compound?
Answer: 274 nM

Question: And the GI50 (SF-268 CNS)?
Answer: 17.7 nM

Question: What about the TGI (SF-268 CNS) of the same compound?
Answer: > 31800 nM

Question: What about the GI50 (MALME-3M melanoma) of the same compound?
Answer: 374 nM

Question: What about the TGI (MALME-3M melanoma) of the same compound?
Answer: 3090 nM

Question: And the GI50 (NCI-H460 lung)?
Answer: < 10 nM

Question: What about the TGI (NCI-H460 lung) of the same compound?
Answer: 118 nM

Question: What about the GI50 (SW-620 colon) of the same compound?
Answer: 171 nM

Question: What about the TGI (SW-620 colon) of the same compound?
Answer: 2550 nM

Question: And the GI50 (A498 renal)?
Answer: 184 nM

Question: What about the TGI (A498 renal) of the same compound?
Answer: 855 nM

Question: What about the GI50 (OVCAR-5 ovarian) of the same compound?
Answer: 64.9 nM

Question: What about the TGI (OVCAR-5 ovarian) of the same compound?
Answer: 629 nM

Question: What about the GI50 (NCI-H522 lung) of the same compound?
Answer: 71.4 nM

Question: What about the TGI (NCI-H522 lung) of the same compound?
Answer: 2160 nM

Question: And the GI50 (TK-10 renal)?
Answer: 3580 nM

Question: And the TGI (TK-10 renal)?
Answer: 55600 nM

Question: What about the GI50 (MOLT-4 leukemia) of the same compound?
Answer: < 10 nM

Question: And the TGI (MOLT-4 leukemia)?
Answer: 83.5 nM

Question: And the GI50 (SF-539 CNS)?
Answer: < 12.2 nM

Question: What about the TGI (SF-539 CNS) of the same compound?
Answer: 121 nM

Question: What about the GI50 (K-562 leukemia) of the same compound?
Answer: 168 nM

Question: What about the TGI (K-562 leukemia) of the same compound?
Answer: > 20400 nM

Question: And the GI50 (A549 NSCLC)?
Answer: 34.3 nM

Question: And the TGI (A549 NSCLC)?
Answer: 2610 nM

Question: What about the GI50 (HT29 colon) of the same compound?
Answer: 224 nM

Question: What about the TGI (HT29 colon) of the same compound?
Answer: > 100000 nM

Question: And the GI50 (HOP-92 NSCLC)?
Answer: 375 nM

Question: And the TGI (HOP-92 NSCLC)?
Answer: 2940 nM

Question: What about the GI50 (SNB-75 CNS) of the same compound?
Answer: 35 nM

Question: And the TGI (SNB-75 CNS)?
Answer: 405 nM

Question: And the GI50 (KM20L2 colon)?
Answer: 262 nM

Question: And the TGI (KM20L2 colon)?
Answer: 5950 nM

Question: What about the GI50 (SK-MEL-28 melanoma) of the same compound?
Answer: 544 nM

Question: And the TGI (SK-MEL-28 melanoma)?
Answer: 8160 nM

Question: And the GI50 (OVCAR-8 ovarian)?
Answer: 103 nM

Question: And the TGI (OVCAR-8 ovarian)?
Answer: 19000 nM

Question: And the GI50 (HCC-2998 colon)?
Answer: 359 nM

Question: And the TGI (HCC-2998 colon)?
Answer: 2140 nM

Question: And the GI50 (XF 498 CNS)?
Answer: 508 nM

Question: What about the TGI (XF 498 CNS) of the same compound?
Answer: 5070 nM

Question: What about the GI50 (SK-OV-3 ovarian) of the same compound?
Answer: 48.1 nM

Question: And the TGI (SK-OV-3 ovarian)?
Answer: 2490 nM

Question: What about the GI50 (UACC-62 melanoma) of the same compound?
Answer: < 10 nM

Question: And the TGI (UACC-62 melanoma)?
Answer: 134 nM

Question: What about the GI50 (HOP-62 NSCLC) of the same compound?
Answer: < 10 nM

Question: What about the GI50 (SK-MEL-2 melanoma) of the same compound?
Answer: 968 nM

Question: And the TGI (SK-MEL-2 melanoma)?
Answer: 2610 nM

Question: What about the GI50 (M14 melanoma) of the same compound?
Answer: 44.5 nM

Question: What about the TGI (M14 melanoma) of the same compound?
Answer: 635 nM

Question: What about the GI50 (EKVX NSCLC) of the same compound?
Answer: 3030 nM

Question: What about the TGI (EKVX NSCLC) of the same compound?
Answer: > 77500 nM

Question: And the GI50 (UO-31 renal)?
Answer: 84.5 nM

Question: And the TGI (UO-31 renal)?
Answer: 595 nM

Question: And the GI50 (CAKI-1 renal)?
Answer: 17.2 nM

Question: And the TGI (CAKI-1 renal)?
Answer: 582 nM

Question: And the GI50 (786-0 renal)?
Answer: < 11.5 nM

Question: And the TGI (786-0 renal)?
Answer: 67.2 nM

Question: What about the GI50 (SN12C renal) of the same compound?
Answer: < 10 nM

Question: What about the TGI (SN12C renal) of the same compound?
Answer: 433 nM

Question: And the GI50 (UACC-257 melanoma)?
Answer: 293 nM

Question: And the TGI (UACC-257 melanoma)?
Answer: 2230 nM

Question: And the GI50 (IGROV1 ovarian)?
Answer: 272 nM

Question: And the TGI (IGROV1 ovarian)?
Answer: 2320 nM

Question: What about the GI50 (SNB-19 CNS) of the same compound?
Answer: 59.4 nM

Question: What about the TGI (SNB-19 CNS) of the same compound?
Answer: 22200 nM

Question: And the GI50 (COLO 205 colon)?
Answer: 529 nM

Question: And the TGI (COLO 205 colon)?
Answer: 2640 nM

Question: What about the GI50 (DLD-1 colon) of the same compound?
Answer: 1540 nM

Question: What about the TGI (DLD-1 colon) of the same compound?
Answer: > 100000 nM

Question: And the GI50 (HCT-116 colon)?
Answer: 121 nM

Question: What about the TGI (HCT-116 colon) of the same compound?
Answer: 1500 nM

Question: And the GI50 (ACHN renal)?
Answer: < 10 nM

Question: And the TGI (ACHN renal)?
Answer: 64.8 nM

Question: What about the GI50 (SF-295 CNS) of the same compound?
Answer: 10.1 nM

Question: What about the TGI (SF-295 CNS) of the same compound?
Answer: 263 nM

Question: What about the GI50 (RPMI-8226 leukemia) of the same compound?
Answer: 1380 nM

Question: And the TGI (RPMI-8226 leukemia)?
Answer: 14500 nM

Question: What about the GI50 (HOP-18 NSCLC) of the same compound?
Answer: 81.6 nM

Question: And the TGI (HOP-18 NSCLC)?
Answer: 1980 nM

Question: And the GI50 (KM12 colon)?
Answer: 514 nM

Question: What about the TGI (KM12 colon) of the same compound?
Answer: 6120 nM

Question: What about the GI50 (NCI-H23 lung) of the same compound?
Answer: 15.5 nM

Question: What about the TGI (NCI-H23 lung) of the same compound?
Answer: 175 nM

Question: What about the GI50 (U251 CNS) of the same compound?
Answer: < 10 nM

Question: And the TGI (U251 CNS)?
Answer: 230 nM

Question: What about the GI50 (DMS 273 small cell lung) of the same compound?
Answer: < 10 nM

Question: What about the TGI (DMS 273 small cell lung) of the same compound?
Answer: 377 nM

Question: And the GI50 (RXF 393 renal)?
Answer: 120 nM

Question: And the TGI (RXF 393 renal)?
Answer: 831 nM

Question: And the GI50 (SK-MEL-5 melanoma)?
Answer: 119 nM

Question: And the TGI (SK-MEL-5 melanoma)?
Answer: 285 nM

Question: And the GI50 (LXFL 529 NSCLC)?
Answer: 1430 nM

Question: What about the TGI (LXFL 529 NSCLC) of the same compound?
Answer: 8420 nM

Question: And the GI50 (OVCAR-4 ovarian)?
Answer: 574 nM

Question: What about the TGI (OVCAR-4 ovarian) of the same compound?
Answer: 3020 nM

Question: What about the GI50 (OVCAR-3 ovarian) of the same compound?
Answer: 424 nM

Question: And the TGI (OVCAR-3 ovarian)?
Answer: 1340 nM

Question: What about the TGI (M19-MEL melanoma) of the same compound?
Answer: 1600 nM

Question: And the GI50 (SNB-78 CNS)?
Answer: 2200 nM

Question: And the TGI (SNB-78 CNS)?
Answer: > 65300 nM

Question: And the GI50 (CCRF-CEM leukemia)?
Answer: < 10 nM

Question: And the TGI (CCRF-CEM leukemia)?
Answer: 34.9 nM

Question: What about the GI50 (LOX IMVI melanoma) of the same compound?
Answer: 19.4 nM

Question: What about the TGI (LOX IMVI melanoma) of the same compound?
Answer: 183 nM

Question: And the GI50 (HCT-15 colon)?
Answer: 386 nM

Question: And the TGI (HCT-15 colon)?
Answer: 3710 nM

Question: And the GI50 (RXF-631 renal)?
Answer: 311 nM

Question: What about the TGI (RXF-631 renal) of the same compound?
Answer: 4580 nM
